PubChem BioAssay (NCI)
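GI50 is the concentration that inhibits growth by half. TGI marks complete inhibition of growth.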

Tests used:
Assay in all cases: NCI-60 cell line screen, 384-well format
[1] = system: NCI-H23 lung
[2] = system: SF-268 CNS
[3] = system: KM12 colon
[4] = system: CCRF-CEM leukemia
[5] = system: OVCAR-8 ovarian
[6] = system: HT29 colon
[7] = system: IGROV1 ovarian
[8] = system: HCT-15 colon
[9] = system: CAKI-1 renal
[10] = system: NCI-H460 NSCLC
[11] = system: HCT-116 colon
[12] = system: M14 melanoma
[13] = system: NCI/ADR-RES ovarian
[14] = system: SK-OV-3 ovarian
[15] = system: UACC-257 melanoma
[16] = system: HOP-92 NSCLC
[17] = system: MOLT-4 leukemia
[18] = system: SF-539 CNS
[19] = system: U251 glioblastoma
[20] = system: A549 NSCLC
[21] = system: A498 renal
[22] = system: OVCAR-4 ovarian
[23] = system: HOP-62 NSCLC
[24] = system: SN12C renal
[25] = system: MALME-3M melanoma
[26] = system: MDA-MB-231 breast
[27] = system: HCC-2998 colon
[28] = system: COLO 205 colon
[29] = system: SW-620 colon
[30] = system: SK-MEL-2 melanoma
[31] = system: SK-MEL-28 melanoma
[32] = system: UO-31 renal
[33] = system: RPMI-8226 leukemia
[34] = system: OVCAR-5 ovarian
[35] = system: HL-60(TB) leukemia
[36] = system: OVCAR-3 ovarian
[37] = system: SF-295 CNS
[38] = system: K-562 leukemia
[39] = system: PC-3 prostate
[40] = system: NCI-H226 lung
[41] = system: TK-10 renal
[42] = system: ACHN renal
[43] = system: 786-0 renal
[44] = system: MDA-MB-435 melanoma
[45] = system: T-47D breast
[46] = system: DU-145 prostate
[47] = system: SNB-19 CNS
[48] = system: UACC-62 melanoma
[49] = system: LOX IMVI melanoma
[50] = system: NCI-H322M lung

Question: Which GI50 [1] does the source give for `CO[C@H]1C[C@@H]2CC[C@@H](C)[C@@](O)(O2)C(=O)C(=O)N2CCCC[C@H]2C(=O)O[C@H]([C@H](C)C[C@@H]2CC[C@@H](OP(C)(C)=O)[C@H](OC)C2)CC(=O)[C@H](C)/C=C(\C)[C@@H](O)[C@@H](OC)C(=O)[C@H](C)C[C@H](C)/C=C/C=C/C=C/1C` here?
Answer: The GI50 was 19.5 µM.

Question: And the TGI [1]?
Answer: Its TGI is 35.2 µM.

Question: What about the GI50 [2] of the same compound?
Answer: Its GI50 is 12.5 µM.

Question: What about the TGI [2] of the same compound?
Answer: Its TGI is 25.3 µM.

Question: And the GI50 [3]?
Answer: The GI50 was 13.4 µM.

Question: And the TGI [3]?
Answer: Its TGI is 26.6 µM.

Question: And the GI50 [4]?
Answer: The GI50 was 0.0126 µM.

Question: What about the TGI [4] of the same compound?
Answer: The TGI was 17 µM.

Question: And the GI50 [5]?
Answer: The GI50 was 11 µM.

Question: What about the TGI [5] of the same compound?
Answer: Its TGI is 23.2 µM.

Question: What about the GI50 [6] of the same compound?
Answer: Its GI50 is 12.5 µM.

Question: What about the TGI [6] of the same compound?
Answer: The TGI was 25.2 µM.

Question: What about the GI50 [7] of the same compound?
Answer: The GI50 was under 0.01 µM.

Question: And the TGI [7]?
Answer: Its TGI is 16 µM.

Question: And the GI50 [8]?
Answer: Its GI50 is 11.4 µM.

Question: And the TGI [8]?
Answer: Its TGI is 23.9 µM.

Question: And the GI50 [9]?
Answer: The GI50 was 10.5 µM.

Question: What about the TGI [9] of the same compound?
Answer: Its TGI is 23.1 µM.

Question: And the GI50 [10]?
Answer: The GI50 was under 0.01 µM.

Question: And the TGI [10]?
Answer: The TGI was 17.4 µM.

Question: What about the GI50 [11] of the same compound?
Answer: Its GI50 is 12.4 µM.

Question: What about the TGI [11] of the same compound?
Answer: The TGI was 25.2 µM.

Question: And the GI50 [12]?
Answer: The GI50 was 10.4 µM.

Question: What about the TGI [12] of the same compound?
Answer: Its TGI is 22.2 µM.

Question: What about the GI50 [13] of the same compound?
Answer: The GI50 was 15.4 µM.

Question: What about the TGI [13] of the same compound?
Answer: The TGI was 38.7 µM.

Question: And the GI50 [14]?
Answer: Its GI50 is under 0.01 µM.

Question: And the TGI [14]?
Answer: Its TGI is 20.2 µM.

Question: What about the GI50 [15] of the same compound?
Answer: The GI50 was 15.3 µM.

Question: What about the TGI [15] of the same compound?
Answer: Its TGI is 28.7 µM.

Question: What about the GI50 [16] of the same compound?
Answer: Its GI50 is 12.5 µM.

Question: And the TGI [16]?
Answer: The TGI was 25.5 µM.

Question: And the GI50 [17]?
Answer: The GI50 was under 0.01 µM.

Question: What about the TGI [17] of the same compound?
Answer: Its TGI is 11.7 µM.

Question: And the GI50 [18]?
Answer: The GI50 was under 0.01 µM.

Question: And the TGI [18]?
Answer: The TGI was 20.7 µM.

Question: What about the GI50 [19] of the same compound?
Answer: The GI50 was 4.92 µM.

Question: And the TGI [19]?
Answer: Its TGI is 21.3 µM.

Question: What about the GI50 [20] of the same compound?
Answer: Its GI50 is under 0.01 µM.

Question: What about the TGI [20] of the same compound?
Answer: Its TGI is 39.9 µM.

Question: And the GI50 [21]?
Answer: Its GI50 is under 0.01 µM.

Question: What about the TGI [21] of the same compound?
Answer: Its TGI is 17.6 µM.

Question: What about the GI50 [22] of the same compound?
Answer: Its GI50 is 12 µM.

Question: And the TGI [22]?
Answer: The TGI was 25 µM.

Question: What about the GI50 [23] of the same compound?
Answer: The GI50 was 0.491 µM.

Question: What about the TGI [23] of the same compound?
Answer: Its TGI is 21.7 µM.

Question: What about the GI50 [24] of the same compound?
Answer: The GI50 was 14 µM.

Question: And the TGI [24]?
Answer: Its TGI is 27.2 µM.

Question: And the GI50 [25]?
Answer: The GI50 was under 0.01 µM.

Question: What about the TGI [25] of the same compound?
Answer: The TGI was 21.2 µM.

Question: And the GI50 [26]?
Answer: The GI50 was 12 µM.

Question: What about the TGI [26] of the same compound?
Answer: Its TGI is 24.4 µM.

Question: What about the GI50 [27] of the same compound?
Answer: The GI50 was 12.3 µM.

Question: And the TGI [27]?
Answer: Its TGI is 24.9 µM.

Question: And the GI50 [28]?
Answer: Its GI50 is 13.5 µM.

Question: And the TGI [28]?
Answer: The TGI was 26.5 µM.

Question: What about the GI50 [29] of the same compound?
Answer: Its GI50 is 14.9 µM.

Question: What about the TGI [29] of the same compound?
Answer: The TGI was 28.6 µM.

Question: What about the GI50 [30] of the same compound?
Answer: Its GI50 is 11 µM.

Question: And the TGI [30]?
Answer: The TGI was 23 µM.

Question: And the GI50 [31]?
Answer: The GI50 was 12.2 µM.

Question: What about the TGI [31] of the same compound?
Answer: The TGI was 24.7 µM.

Question: What about the GI50 [32] of the same compound?
Answer: Its GI50 is under 0.01 µM.

Question: And the TGI [32]?
Answer: Its TGI is 0.0198 µM.

Question: And the GI50 [33]?
Answer: Its GI50 is under 0.01 µM.

Question: What about the GI50 [34] of the same compound?
Answer: The GI50 was 15.3 µM.

Question: What about the TGI [34] of the same compound?
Answer: Its TGI is 29.8 µM.

Question: And the GI50 [35]?
Answer: The GI50 was 15.3 µM.

Question: And the TGI [35]?
Answer: The TGI was 28.7 µM.

Question: And the GI50 [36]?
Answer: Its GI50 is 11.2 µM.

Question: And the TGI [36]?
Answer: The TGI was 23.4 µM.

Question: What about the GI50 [37] of the same compound?
Answer: The GI50 was under 0.01 µM.

Question: And the TGI [37]?
Answer: Its TGI is 16.6 µM.

Question: And the GI50 [38]?
Answer: Its GI50 is 11.2 µM.

Question: What about the TGI [38] of the same compound?
Answer: Its TGI is 23.4 µM.

Question: What about the GI50 [39] of the same compound?
Answer: The GI50 was 1.06 µM.

Question: What about the TGI [39] of the same compound?
Answer: The TGI was 21.3 µM.

Question: And the GI50 [40]?
Answer: Its GI50 is 12.4 µM.

Question: What about the TGI [40] of the same compound?
Answer: Its TGI is 25.3 µM.

Question: And the GI50 [41]?
Answer: Its GI50 is 11.6 µM.

Question: What about the TGI [41] of the same compound?
Answer: Its TGI is 28.6 µM.

Question: What about the GI50 [42] of the same compound?
Answer: The GI50 was 12.4 µM.

Question: What about the TGI [42] of the same compound?
Answer: The TGI was 25.2 µM.

Question: And the GI50 [43]?
Answer: The GI50 was 11.2 µM.

Question: And the TGI [43]?
Answer: The TGI was 23.5 µM.

Question: What about the GI50 [44] of the same compound?
Answer: The GI50 was 14.2 µM.

Question: What about the TGI [44] of the same compound?
Answer: Its TGI is 27.9 µM.

Question: What about the GI50 [45] of the same compound?
Answer: The GI50 was under 0.01 µM.

Question: And the TGI [45]?
Answer: Its TGI is 25 µM.

Question: What about the GI50 [46] of the same compound?
Answer: Its GI50 is 11.3 µM.

Question: And the TGI [46]?
Answer: Its TGI is 26.8 µM.

Question: And the GI50 [47]?
Answer: The GI50 was 13.5 µM.

Question: What about the TGI [47] of the same compound?
Answer: The TGI was 26.9 µM.

Question: And the GI50 [48]?
Answer: The GI50 was 7.86 µM.

Question: What about the TGI [48] of the same compound?
Answer: The TGI was 21.6 µM.

Question: And the GI50 [49]?
Answer: The GI50 was 17.5 µM.

Question: What about the TGI [49] of the same compound?
Answer: Its TGI is 31.4 µM.

Question: What about the GI50 [50] of the same compound?
Answer: The GI50 was under 0.01 µM.

Question: What about the TGI [50] of the same compound?
Answer: Its TGI is 25.3 µM.
